In patent US12466831B2, “Substituted amino triazolopyrimidine and amino triazolopyrazine adenosine receptor antagonists, pharmaceutical compositions and their use” (Merck Sharp & Dohme LLC, priority 2018, dated 2025) one finds IC50 data, which are given here for 4 compounds.

The IC50 is the concentration at which inhibition is half-maximal. Low values mean greater potency in that assay, high ones weaker potency in that assay.

The experiment concerns the target T1, human A2a adenosine receptor (Homo sapiens, UniProt P29274).
T1 construct: purchased Perkin Elmer RBHA2aM400UA; host or cells: HEK293 or CHO cells (recombinant expression)
The experiment in a line: A2a binding affinity using SPA, Method (B). Particulars: Method (B): [3H]SCH58261 SPA, membranes expressing human A2a. From the text:
Method (A) describes the procedure used to measure A2a binding affinity using radioligand binding. Method (B) describes the procedure used to measure A2a binding affinity using SPA technology. The method used to measure A2b binding affinity is also described below. The method used to determine the A2a IC50 value reported for each compound in the table is indicated next to the reported value. The A2b IC50 value measured using the A2b binding affinity assay is shown in the table next to the compound under the corresponding A2a value.
The A2a receptor affinity binding assay measured the amount of binding of a tritiated ligand with high affinity for the A2a adenosine receptor to membranes made from HEK293 or CHO cells recombinantly expressing the human A2a adenosine receptor, in the presence of varying concentrations of a compound of the invention. The data were generated using either filtration binding or a homogenous scintillation proximity assay (SPA).
Method (B): Measurement of A2a Binding Affinity Using SPA
Binding affinity using SPA was conducted as follows. Test compounds (50 nL) were dispensed into individual wells of a 384-well OptiPlate™ well (Perkin Elmer) by Echo® acoustic liquid transfer (Labcyte). 20 μL of 1.25 nM [^3H] SCH58261 ((7-(2-phenylethyl)-5-amino-2-(2-furyl)-pyrazolo-[4,3-e]-1,2,4-triazolo[1,5-c]pyrimidine)) in DPBS assay buffer (Dulbecco's phosphate buffered saline without calcium and magnesium, ThermoFisher Scientific, Cat. No. A1285601) supplemented with 10 mM MgCl2 was added. A2a receptor-expressing membranes were incubated with 20 μg/mL adenosine deaminase (Roche, Cat. No. 10 102 105 001) for 15 minutes at room temperature. The receptor-expressing membranes were then combined with wheat germ agglutinin-coated yttrium silicate SPA beads (GE Healthcare, Cat. No. RPNQ0023) in a ratio of […] (w/w) and incubated for 30 minutes at room temperature. 30 μL of the membrane/bead mixture (0.25 μg and 25 μg per well respectively) were added to the 384-well OptiPlate™ well. To define total and non-specific binding, wells containing 1% DMSO or 1 μM CGS15943 (Tocris Bioscience, Cat. No. 1699) respectively were also included in the experiment. The plate was incubated for one hour at room temperature with agitation. The assay plate was then incubated for an hour to allow the beads to settle before data were collected using a TopCount® (Perkin Elmer) scintillation counter. After normalization to total and non-specific binding, the percent effect at each compound concentration was calculated. The plot of percent effect versus the log of compound concentration was analyzed electronically using a 4-parameter logistic fit based on the Levenberg-Marquardt algorithm to generate IC50 values.

T1 sequence (P29274 whole entry): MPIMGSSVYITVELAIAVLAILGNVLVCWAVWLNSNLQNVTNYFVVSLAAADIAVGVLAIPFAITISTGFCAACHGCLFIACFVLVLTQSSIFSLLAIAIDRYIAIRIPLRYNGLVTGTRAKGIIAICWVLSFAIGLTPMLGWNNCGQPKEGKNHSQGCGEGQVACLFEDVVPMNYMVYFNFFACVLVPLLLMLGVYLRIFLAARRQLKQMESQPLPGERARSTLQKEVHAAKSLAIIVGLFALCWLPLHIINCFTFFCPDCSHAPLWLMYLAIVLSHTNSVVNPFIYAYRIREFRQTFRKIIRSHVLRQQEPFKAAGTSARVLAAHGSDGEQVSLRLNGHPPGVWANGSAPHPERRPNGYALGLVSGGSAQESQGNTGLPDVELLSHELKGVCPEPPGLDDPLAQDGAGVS

As for `Nc1nc(-c2ccccc2)c(C2CC2)c2nc([C@@H]3CCCN(CC(F)(F)F)C3)nn12` [Example 5.5, (R)-8-cyclopropyl-7-phenyl-2-(1-(2,2,2-trifluoroethyl)piperidin-3-yl)-[1,2,4]triazolo[1,5-c]pyrimidin-5-amine], the IC50 amounted to 0.0817 µM. Under `CC(C)(O)c1c(-c2ccccc2)nc(N)n2nc([C@@H]3CCCN(CC(F)(F)F)C3)nc12` [Example 6.5, (R)-2-(5-amino-7-phenyl-2-(1-(2,2,2-trifluoroethyl)piperidin-3-yl)-[1,2,4]triazolo[1,5-c]pyrimidin-8-yl)propan-2-ol] stands 1.03 µM; under `C=C(C)c1c(-c2ccccc2)nc(N)n2nc([C@@H]3CCCN(CC(F)(F)F)C3)nc12` [Example 7.3, (R)-7-phenyl-8-(prop-1-en-2-yl)-2-(1-(2,2,2-trifluoroethyl)piperidin-3-yl)-[1,2,4]triazolo[1,5-c]pyrimidin-5-amine], 0.0658 µM. In turn, `Nc1nc(-c2ccccc2)cc2nc([C@@H]3CCCN(CC(F)F)C3)nn12` [Example 9.2, (R)-2-(1-(2,2-difluoroethyl)piperidin-3-yl)-7-phenyl-[1,2,4]triazolo[1,5-c]pyrimidin-5-amine] returned an IC50 of 0.0109 µM.
